Test results as given in patent US20240336617A1, “Substituted Bimane Compounds and Methods of Use Thereof” (THE TRUSTEES OF THE UNIVERSITY OF PENNSYLVANIA, priority 2023, published 2024).

Tests used:
[1] = Fluorescence (emission) measurements; assay type: physicochemical; settings: for Emission λem: Table S12;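 for all read-outs here: fluorescence emission spectra recorded on a spectrofluorometer, with each compound excited at its own absorption maximum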
Protocol: The fluorescence spectrum of each derivative (150 μL) was measured on a Photon Technology International (PTI) QuantaMaster™ 40 fluorescence spectrometer by excitation at the maximum absorption wavelength for each compound.
The fluorescence spectrum of each derivative (150 μL) was measured on a Photon Technology International (PTJ) QuantaMaster™ 40 fluorescence spectrometer by excitation at the maximum absorption wavelength for each compound.

[2] = Fluorescence lifetime measurements (TCSPC); assay type: physicochemical; settings: for Fluorescence Lifetime: ACN/PBS buffer (1:1 v/v); for Lifetime: ACN/PBS buffer (50:50 v/v), excitation 340 nm
Protocol: Time correlated single photon counting (TCSPC) measurements of fluorescence lifetime decays for 100 μM solutions of dyes (6, 7c, 7e, 7f, and 7g) in ACN/PBS buffer (50:50 v/v) were collected with the PTI Quantamaster™ 40 using a pulsed LED with a maximum emission at 340 nm. Fluorescence emission was collected at the indicated wavelength for each dye with 20 nm slit widths. The instrument response function (IRF) was collected under identical conditions. Data analysis was performed with FluoFit software (PicoQuant GmbH; Berlin, Germany) using an exponential decay model.
Fluorescence lifetime measurements. Time correlated single photon counting (TCSPC) measurements of fluorescence lifetime decays for 100 μM solutions of dyes (3 and 5c-f) in ACN/PBS buffer (50:50 v/v) were collected with the PTI Quantamaster™ 40 using a pulsed LED with a maximum emission at 340 nm. Fluorescence emission was collected at the indicated wavelength for each dye with 20 nm slit widths. The instrument response function ([…]) was collected under identical conditions. Data analysis was performed with FluoFit software (PicoQuant GmbH; Berlin, Germany) using an exponential decay model. […] FIG. 64D Fluorescence spectra of 5i-5k. […] Fluorescence spectra were measured at their maximum absorption wavelength. FIGS. 66A-66K show representative QY acquisitions of 3 and 5a-f, 5h-k in ACN/PBS buffer (50:50). All had consistent excitation (360 nm) and spectral collection (350-800 nm) parameters. Final concentration of the probe is 500 μM. Black line indicates incident light and blue line indicates sample spectrum. […] All had consistent excitation (360 nm, slit width 10 nm) and spectral collection (350-800 nm) parameters. Final concentration of the probe is 500 µM. Black line indicates incident light and blue line indicates sample spectrum. FIG. 68: Effect of pH on absorption and emission of 5h and 5j. […] For pH screening of 5h and 5j, PBS buffer solutions were prepared, then adjusted the pH 2, 4, and 7 by adding 6 M hydrochloric acid, pH 9 and 11 by adding 5 M sodium hydroxide. Emission spectra were measured by the excitation wavelength 354 nm for 5h and 385 nm for 5j. […] Lifetime measurements with exponential fits shown at left and residuals after fitting shown at right.

[3] = Solvatochromic measurements; assay type: physicochemical; settings: organic solvents of different polarity
Protocol: The remaining 850 μL solution was used to obtain fluorescence images under a handheld 365 nm UV lamp.
Solvatochromic measurements. […] The remaining 850 μL solution was used to obtain fluorescence images under a handheld 365 nm UV lamp.

[4] = Molar absorptivity determination; assay type: physicochemical;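 note: molar absorptivity derived from UV-Vis absorbance spectra recorded for each derivative on a spectrometer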
Protocol: The absorbance spectrum of each derivative (150 μL) was measured on a Thermo Scientific Genesys 150 UV-Vis spectrometer, using 50:50 ACN/PBS as a blank.
Molar absorptivity determination. […] The absorbance spectrum of each derivative (150 μL) was measured on a Thermo Scientific Genesys 150 UV-Vis spectrometer, using 50:50 ACN/PBS as a blank.

[5] = Absorbance measurements (UV-Vis); settings: for λabs: ACN/PBS; for Absorbance Wavelength: ACN:PBS buffer (50:50 v/v)
Protocol: Samples were individually diluted to the final concentration of 25 μM (500 μL) using 50:50 acetonitrile in phosphate buffered saline (ACN/PBS). The absorbance spectrum of each derivative (150 μL) was measured on a Thermo Scientific Genesys 150 UV-Vis spectrometer, using 50:50 ACN/PBS as a blank.

[6] = Fluorescent quantum yield (QY) measurements; assay type: physicochemical; settings: for Fluorescence QY: ACN/PBS buffer (1:1 v/v); for Fluorescence quantum yield: in ACN
Protocol: For each QY measurement, the incident excitation light spectrum was collected with 1 mL of solvent. […] Using the JASCO Quantum Yield Software, the dye QY was calculated by dividing the dye fluorescence intensity by the difference in incident light intensity in the presence and absence of dye. The minimum excitation wavelength for a full excitation incident spectrum using this setup is 360 nm.
Fluorescent quantum yield (QY) measurements. For each QY measurement, the incident excitation light spectrum was collected with 1 mL of solvent. After measuring the incident light intensity, dye (3 and 5a-5k) was added to the solvent from a concentrated stock solution to a final concentration of […] and the new spectrum (fluorescence intensity and new incident light intensity) was collected. Using the JASCO Quantum Yield Software, the dye QY was calculated by dividing the dye fluorescence intensity by the difference in incident light intensity in the presence and absence of dye. The minimum excitation wavelength for a full excitation incident spectrum using this setup is 360 nm.

[7] = 25 μM in ACN/PBS buffer (1:1 v/v), pH 7.4
[8] = ACN/PBS buffer (1:1 v/v), pH 7.4
[9] = in ACN, at maximum absorption wavelength

| Compound | Emission λmax ([1]; 25 μM in ACN) [nm] | Emission λmax [1, 7] [nm] | Emission λem ([1]; 25 μM in ACN) [nm] | Stokes shift ([1]; ACN/PBS buffer (1:1 v/v)) [nm] | Stokes shift ([1]; in ACN) [nm] | Fluorescence Lifetime [2] [ns] | Lifetime ([2]; Table 4) [ns] | Lifetime ([2]; Table S13) [ns] | solvatochromism / environmental sensitivity [3] | Molar Absorptivity (ε) [4, 8] [M⁻¹ cm⁻¹] | Molar Absorptivity (ε) [4, 9] [M⁻¹ cm⁻¹] | Absorbance λmax ([5]; 25 μM in ACN) [nm] | Absorbance λmax [5, 7] [nm] | Fluorescence QY [6] [%] | Fluorescence quantum yield [6] [%] | Fluorescence quantum yield ([6]; Table S12) [%] | λabs [5] [nm] | Absorbance Wavelength ([5]; Table 11) [nm] | Absorbance Wavelength ([5]; Table S14) [nm] | further results |
| --- | --- | --- | --- | --- | --- | --- | --- | --- | --- | --- | --- | --- | --- | --- | --- | --- | --- | --- | --- | --- |
| COP(=O)(Cc1c(C)c(=O)n2c(=O)c(C)c(C)n12)OC [Compound 6, dimethyl ((2,5,6-trimethyl-1,7-dioxo-1H,7H-pyrazolo[1,2-a]pyrazol-3-yl)methyl)phosphonate] | 432 | 464 | 432 | 80 | 57 | 2.32 | 2.32 ± 0.01 | 2.32 ± 0.01 | no significant environmental sensitivity | 7902 | 6121 | 375 | 384 | 64.6 | 77.7 | 77.7 |  |  |  | maximum emission wavelength (λem) ([1]; 50:50 ACN/PBS, excitation at λabs): 464 nm; fluorescent lifetime ([2]; ACN/PBS): 2.32 ns; fluorescence quantum yield (QY) ([6]; in ACN/PBS): 64.6% |
| Cc1c(C)n2c(/C=C/c3ccc(C#N)cc3)c(C)c(=O)n2c1=O [Compound 7b, (E)-4-(2-(2,5,6-trimethyl-1,7-dioxo-1H,7H-pyrazolo[1,2-a]pyrazol-3-yl)vinyl)benzonitrile] | 522 | 520 | 522 | 200 | 206 |  |  |  | no significant solvatochromism | 38995 | 43238 | 316 | 320 | 0.8 | 1.4 | 1.4 | 320 | 320 | 320 |  |
| Cc1c(C)n2c(/C=C/c3ccccc3)c(C)c(=O)n2c1=O [Compound 7e, (E)-2,3,6-trimethyl-5-styryl-1H,7H-pyrazolo[1,2-a]pyrazole-1,7-dione] |  | 503 |  | 182 | 176 | 1.02 | 1.02 ± 0.004 | 1.02 ± 0.004 | no significant solvatochromism | 23959 | 32724 | 316 | 321 | 2.5 | 3.1 | 3.1 | 321 | 321 | 321 |  |
